This is an account of results in publication PMC4957648 (Journal of medicinal chemistry, 2016).

One series deals with thyroid hormone receptor. Put plainly: Thyroid hormone activity assay, agonist mode. The format is cell-based. The note with it: for EC50: read-out: TR agonist EC50, GH3.TRE-Luc cells.
For the next series, the system named is CFTR. As to conditions: from purified Cif protein and P. aeruginosa PA14; ref 5b; cited from earlier work.
Series [1] is described as follows: Solubility under Cif assay conditions. The class given is physicochemical.
Series [2] has as its target T1, Cif (Pseudomonas aeruginosa, UniProt A0A0H2ZD27). Put plainly: Fluorescent-based Cif inhibitory assay. The format is biochemical.
Series [3] deals with T1, Cif. The series can be described thus: Surface plasmon resonance binding to immobilized Cif.
A short description of series [4]: Human liver microsomal stability. The format is in vitro ADME. As to conditions: liver microsomes.
The target in the next series is T2, Human sEH (Homo sapiens, UniProt P34913).
T2 sequence (P34913 1-555): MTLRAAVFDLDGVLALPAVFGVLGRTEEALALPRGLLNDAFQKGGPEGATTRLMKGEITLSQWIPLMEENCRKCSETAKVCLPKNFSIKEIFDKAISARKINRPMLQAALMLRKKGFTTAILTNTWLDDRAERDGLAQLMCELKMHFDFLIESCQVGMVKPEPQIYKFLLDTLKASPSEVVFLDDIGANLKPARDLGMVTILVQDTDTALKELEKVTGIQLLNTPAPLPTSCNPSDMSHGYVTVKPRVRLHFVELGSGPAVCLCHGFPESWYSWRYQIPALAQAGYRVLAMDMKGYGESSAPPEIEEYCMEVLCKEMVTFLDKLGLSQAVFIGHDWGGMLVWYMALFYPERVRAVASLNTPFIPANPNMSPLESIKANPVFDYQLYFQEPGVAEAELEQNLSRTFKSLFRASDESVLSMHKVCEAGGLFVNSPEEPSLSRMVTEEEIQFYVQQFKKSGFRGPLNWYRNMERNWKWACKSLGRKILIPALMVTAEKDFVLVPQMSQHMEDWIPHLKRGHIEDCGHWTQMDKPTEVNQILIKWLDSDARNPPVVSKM
Put plainly: biochemical.

In series [5] the test system is polarized monolayers of airway epithelial cells. Put plainly: Cytotoxicity in polarized airway epithelial monolayers. The class given is cell-based. As to conditions: concentrations up to 10 μM.
A further series relates to GH3.TRE-Luc cells. Put plainly: Cytotoxicity in GH3.TRE-Luc cells. The class given is cell-based. As to conditions: concentrations up to 10 μM.

Values after ≈ are worked out from the molar mass of the structure shown.

T1 sequence (A0A0H2ZD27 25-319 limits assumed): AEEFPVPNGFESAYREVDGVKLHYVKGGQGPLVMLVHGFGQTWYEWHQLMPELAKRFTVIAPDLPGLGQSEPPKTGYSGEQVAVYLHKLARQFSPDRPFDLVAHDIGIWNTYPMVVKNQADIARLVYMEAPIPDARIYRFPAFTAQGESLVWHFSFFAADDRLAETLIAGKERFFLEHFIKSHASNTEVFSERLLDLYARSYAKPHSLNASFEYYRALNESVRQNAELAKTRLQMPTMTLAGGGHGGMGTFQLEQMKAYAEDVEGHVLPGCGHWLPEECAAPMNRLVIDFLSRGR

On to `CCC(=O)Nc1cc(Br)c(Oc2ccc(O)c(C(C)C)c2)c(Br)c1` [Compound 1c], for which the “thyroid hormone activity (compounds with different R1)” value in the series with thyroid hormone receptor was “lowest thyroid hormone activity”.

Regarding `O=C(O)Cc1cc(I)c(Oc2ccc(O)c(I)c2)c(I)c1` [tiratricol], in the series with CFTR, the “protection of CFTR” value is “protects CFTR”.

One may read the solubility as the dissolved amount per volume that the medium holds. Low values mean a poorly soluble substance, high ones a readily soluble substance. `CCOC(=O)CC(=O)Nc1cc(Cl)c(Oc2ccc(O)cc2)c(Cl)c1` [Compound 1k] registered a solubility in [1] of 50 to 100 µM (≈ 19.2 to 38.4 µg/mL). The Cif inhibitory activity entry at Cif [2] (at 50 μM) is given as “no inhibition”.

For orientation: EC50 means the midpoint of the concentration-response curve. On to `CCC(=O)Nc1cc(Cl)c(Oc2ccc(O)c(-c3ccc(C(C)=O)cc3)c2)c(Cl)c1` [Compound 8j], for which, in the series with thyroid hormone receptor, the EC50 was over 10 µM. Besides, the “increase in Cif inhibitory potency over lead compound” value (from here on “increase in Cif inhibitory potency”) at Cif [2] was about 10 fold. Moreover, the residence time at Cif [3] is 0.0333 to 0.0667 min.

In the case of `CCOC(=O)CC(=O)Nc1cc(Br)c(Oc2cccc(C(C)C)c2)c(Br)c1` [Compound 1g], the solubility in series [1] fell in the range of 50 to 100 µM (≈ 25 to 49.9 µg/mL). Moreover, on Cif [2] (at 50 μM or 25 μM), the Cif inhibitory activity entry was “failed to show inhibitory activity”.

Consider `CCOC(=O)CC(=O)Nc1cc(Br)c(Oc2ccc(OC)c(C(C)C)c2)c(Br)c1` [Compound 1h], for which the solubility in [1] is 25 to 50 µM (≈ 13.2 to 26.5 µg/mL). Also, the Cif inhibitory activity entry at Cif [2] (at 50 μM or 25 μM) was “failed to show inhibitory activity”.

As a reminder, the half-life is how long it takes for the measured level to halve. High values mean slow loss, low ones fast loss. The compound `CCC(=O)Nc1cc(Cl)c(Oc2ccc(O)c(-c3ccccc3)c2)c(Cl)c1` [Compound 8a] returned a half-life in series [4] of over 1 h.

The term IC50 denotes the midpoint of a concentration-inhibition curve. High values mean weaker potency, low ones greater potency. For the compound `CCC(=O)Nc1cc(Cl)c(Oc2ccc(O)c(-c3ccc(C(N)=O)cc3)c2)c(Cl)c1` [Compound 8c, 5′-(2,6-Dichloro-4-propionamidophenoxy)-2′-hydroxy-[1,1′-biphenyl]-4-carboxamide], the IC50 against Human sEH is about 8 µM. In addition, the cytotoxicity entry (in series [5]; in the series on GH3.TRE-Luc cells) was “neither 8c nor 8h showed cytotoxicity” in each case. Moreover, the EC50 with thyroid hormone receptor is over 10 µM. For the same compound, the “increase in Cif inhibitory potency” value on Cif [2] is about 10 fold. In addition, the residence time at Cif [3] lay within 0.0333 to 0.0667 min.

On Human sEH, `CCC(=O)Nc1cc(Cl)c(Oc2ccc(O)c(-c3ccc(NC(N)=O)cc3)c2)c(Cl)c1` [Compound 8h] came in with an IC50 of about 8 µM. For the same compound, the cytotoxicity entry (in series [5]; with GH3.TRE-Luc cells) was “neither 8c nor 8h showed cytotoxicity” in each case. Further, the EC50 with thyroid hormone receptor is over 10 µM. Moreover, on Cif [2], the “increase in Cif inhibitory potency” value was about 10 fold. For the same compound, the residence time at Cif [3] was 0.0333 to 0.0667 min.
